4 compounds from patent US11685726B2, “Pharmaceutical compositions of 6-(2-(2H-tetrazol-5-yl)ethyl)-6-fluorodecahydroisoquinoline-3-carboxylic acid and ester derivatives thereof” (Sea Pharmaceuticals LLC, priority 2020, dated 2023) can be followed below.

Assay [1] deals with 6 Hz psychomotor seizure model in mice. Description: 6 Hz psychomotor seizure model in mice. Format: in vivo, mouse. To be noted: DMC. An excerpt:
Adult male Carworth Farms (CF-1) mice (25-35 g) or young male Sprague-Dawley (SD) rats (100-150 g) were obtained from Charles River Laboratories Inc (Wilmington Mass. USA). CF1 mice were typically used for the 6 Hz psychomotor seizure model (6 Hz model described in the section below) but could also be used for the Maximal electroshock seizure (MES) model if performed in mice (Maximal electroshock seizure model described in the section below). SD rats were typically used for MES model but could also be used for 6 Hz psychomotor model if performed in rats. Animals were allowed free access to food and water, except during testing periods. After delivery from supplier lab to the in vivo pharmacology testing lab, animals were allowed sufficient time to acclimate to housing conditions prior to testing. Animals were housed in plastic cages in rooms with controlled humidity, ventilation, and lighting (12 hours lights on and 12 hours darkness). The animals were housed and fed in a manner consistent with the recommendations in the “Guide for Care and Use of Laboratory Animals” (National Research Council), and in accordance with guidelines set by an Institutional Animal Care and Use Committee (IACUC). Animal experiments were conducted in a manner consistent with Animal Research: Reporting of In Vivo Experiments (ARRIVE) guidelines (UK) and were approved by an IACUC. Test compounds or respective vehicle (placebo) were administered using an optimal fluid volume-to-body fluid ratio. Solutions or suspensions of test compounds, reference compounds or vehicles were administered to mice or rats in a volume of 0.01 mL/g body weight (mice) or 0.004 mL/g body weight (rats) by subcutaneous (s.c.) injection, intraperitoneal (i.p.) injection or by oral gavage (p.o.) unless otherwise indicated. Reference drug Levetiracetam or vehicle was administered by intraperitoneal (i.p.) injection.
Mice are given a topical anesthetic on the cornea of each eye prior to placement of corneal electrodes. 6 Hz psychomotor seizures were induced in mice (usually 8 animals per group) using electrical stimulation via corneal electrodes (6 Hz, 0.2 millisecond rectangular pulse, 3 second duration at 22 mA using a Grass 48 stimulator instrument as described in Barton M E et al 2001. Epilepsy Res 47:217-227). Prior to placement of corneal electrodes for electrical stimulation 0.5% tetracaine in saline (Sigma) drops were applied to each eye. Seizures and behaviors that arise from the electrical stimulus in the 6 Hz model include a minor clonic seizure phase followed by stereotyped automatistic behaviors including stun, forelimb clonus, twitching of the vibrissae and Straub-tail. […] Animals not presenting any of these behaviors were considered “protected” from seizures. This serves as a screen for in vivo pharmacological activity of test articles or reference anti-epilepsy drugs and defines anti-seizure activity as shown in several publications [Barton M E et al. 2001. Epilepsy Res. 47:217-227; Barton M E et al. 2003 Epilepsy Res. 56:17-26; Brown W C et al. 1953. J Pharmacol Exp Ther 107:273-283. Metcalf C S et al. 2017a. Epilepsia 58:484-493.; Metcalf C S et al. 2017c. Epilepsia 58:239-246.
Unless otherwise indicated pretreatment times of mice or rats were typically 0.5 hours for respective vehicle, Compounds 1, 3, 4, 6 or other compounds administered by subcutaneous or intraperitoneal route (unless other times indicated). A pretreatment time of 1 hour was used for Compounds 3, 4, 6 or other compounds administered by oral route unless other times indicated. Test compounds or respective vehicles were tested in some cases at other pretreatment times as indicated. A median effective dose (ED50) and 95% confidence interval (CI) were calculated using a Prism (Graphpad software). […]

Another assay concerns AMPA receptor. Description: Whole cell patch-clamp recording of s-AMPA induced currents in pyramidal neurons of rat brain prefrontal cortex slices. To be noted: rat brain slice PFC pyramidal neurons; n=4 to 5 experiments per concentration; read-out: IC50 of inhibition of peak amplitude responses to 20 μM s-AMPA. Format: cell-based. The method, then:
(§1) Additionally biological activity of compounds as antagonists of AMPA receptors or NMDA receptors (also called ionotropic glutamate-gated ion channels) were conducted using ex vivo functional electrophysiological assays of pyramidal neurons in slices of rat brain prefrontal cortex. Effects of test compounds cf. reference compounds were studied by whole cell patch-clamp electrophysiology recordings of s-AMPA-induced currents or NMDA-induced currents, respectively, using rat brain slice prefrontal cortex (layer V) pyramidal neurons.
Male Sprague Dawley rats were supplied by Charles River Laboratories (Wilmington, Mass. USA) and were housed 4 per cage within a temperature (20.5-23.5° C.) and humidity (30-80%) controlled environment on a 12 hour light/dark cycle with access to food (Teklad Global Soy Protein, Cat. No. T.2920X10, Envigo, Indianapolis, Ind., USA) and water ad libitum. At 4-6 weeks of age rats were terminally anaesthetized using isofluorane [(1-chloro-2,2,2-trifluoroethyl difluoromethyl ether) supplied by Baxter Healthcare Corp, Deerfield, Ill., USA], and decapitated. The brain was removed and 300 μm thick coronal prefrontal cortex (PFC) or sagittal hippocampal slices were sectioned using a Vibratome microtome. After brain removal, and throughout slicing, the tissue was submerged in ice cold […] cerebrospinal fluid (aCSF). Once slices were cut, they were transferred to a beaker containing aCSF and left at room temperature for a minimum of 1 hour before commencing electrophysiological recordings. After this period, individual slices were transferred to a recording chamber continuously perfused with aCSF at a rate of 4-6 mL/min before commencing experiment protocols. aCSF composition (in mM): NaCl, 127; KCl, 1.9; KH2PO4, 1.2; CaCl2), 2.4; MgCl2, 1.3; NaHCO3, 26; D-glucose, 10; in water equilibrated with 95% Oxygen gas-5% CO2 gas (reagent suppliers listed below). Experiments investigating NMDA currents had aCSF supplemented with 10 μM glycine (reagents suppliers listed below). All experiments were conducted following protocols with the approval of an Institutional Animal Care and Use Committee (IACUC).
Whole cell patch-clamp recordings were performed from Layer V prefrontal cortex pyramidal neurons at room temperature using the ‘visualized’ version of the patch-clamp technique. […]
(§2) All test compound experiments were carried out in the voltage-clamp recording configuration of the whole cell patch-clamp technique and all recordings performed at a holding potential of −60 mV. Recordings were monitored on a Dell personal computer (PC) running Axon pClamp software (Molecular Devices, Sunnyvale, Calif., USA) and digitized at 10 kHz. […]

A further assay relates to NMDA receptor. Description: Whole cell patch-clamp recording of NMDA induced currents in pyramidal neurons of rat brain prefrontal cortex slices. It counts as cell-based. To be noted: 30 μM; rat brain slice PFC pyramidal neurons; n=4. The method, then: as §1
Male Sprague Dawley rats were supplied by Charles River Laboratories (Wilmington, Mass. USA) and were housed 4 per cage within a temperature (20.5-23.5° C.) and humidity (30-80%) controlled environment on a 12 hour light/dark cycle with access to food (Teklad Global Soy Protein, Cat. No. T.2920X10, Envigo, Indianapolis, Ind., USA) and water ad libitum. […]
as §2
A general note: In patch-clamp work, channel activity is measured electrically.

In the case of `CCOC(=O)[C@@H]1C[C@H]2C[C@@](F)(CCc3nnn[nH]3)CC[C@H]2CN1` [Compound 3, ethyl (3S,4aS,6S,8aR)-6-fluoro-6-[2-(1H-1,2,3,4-tetrazol-5-yl)ethyl]-decahydroisoquinoline-3-carboxylate], the “6 Hz Test Results (# mice protected from seizure/# mice tested)” value (“6 Hz Test Results” below) was 5/8 in assay [1] (13 mg/kg p.o., 1 hour) and 8/8 in assay [1] (13 mg/kg s.c., 0.5 hours).

For `CCC(CC)COC(=O)[C@@H]1C[C@H]2C[C@@](F)(CCc3nnn[nH]3)CC[C@H]2CN1` [Compound 4, 2-ethylbutyl (3S,4aS,6S,8aR)-6-fluoro-6-[2-(1H-1,2,3,4-tetrazol-5-yl)ethyl]-decahydroisoquinoline-3-carboxylate], the “6 Hz Test Results” value is 6/7 in assay [1] (13 mg/kg p.o., 1 hour) and 8/8 in assay [1] (13 mg/kg s.c., 0.5 hours).

Consider `O=C(O)[C@@H]1C[C@H]2C[C@@H](CCc3nn[nH]n3)CC[C@H]2CN1` [Tezampanel, reference compound], for which, in the assay with AMPA receptor, the IC50 amounted to 481 nM. For the same compound, the “inhibition of peak amplitude responses to 50 μM NMDA induced currents” value in the assay with NMDA receptor was found to be 40%+/−2%.

For the compound `O=C(OC1CCCCC1)[C@@H]1C[C@H]2C[C@@](F)(CCc3nn[nH]n3)CC[C@H]2CN1` [Compound 6, cyclohexyl (3S,4aS,6S,8aR)-6-fluoro-6-[2-(1H-1,2,3,4-tetrazol-5-yl)ethyl]-decahydroisoquinoline-3-carboxylate], the “6 Hz Test Results” value in assay [1] (13 mg/kg p.o., 1 hour) is 8/8.

For orientation: IC50 means the point on the concentration scale where inhibition reaches its midpoint.
